Data taken from US20080124404A1 (priority 2006, published 2008).
Entries after “also recorded” stand apart in the source; their conditions may differ.

What was measured:
LDLR mRNA [1] = assay: Real-time quantitative RT-PCR of LDLR mRNA expression in HepG2 cells; format: cell-based, human; settings: HepG2, 8 h
LDLR mRNA [2] = assay: LDLR mRNA expression with MDR1 blocked by verapamil or MDR1 siRNA in HepG2 cells (real-time PCR); format: cell-based, human
Description: Quantitation of LDLR mRNA expression by northern blot analysis and real-time PCR. […] Differences in hybridization signals of northern blots were quantitated by a PhosphoImager. For quantitative real-time PCR assays, the reverse transcription was conducted with random primers using M-MLV (Promega) at 37° C. for 1 h in a volume of 25 u.1 containing 1 μg of total RNA. Real-time PCR was performed on the cDNA using ABI Prism 7900-HT Sequence Detection System and Universal MasterMix. The human and hamster LDLR and GAPDH Pre-Developed TaqMan Assay Reagents (Applied Biosystems) were used to assess the mRNA expressions in HepG2 and in hamster livers. The MDR1 mRNA expression in HepG2 cells was assayed similarly using the Pre-Developed probes from Applied Biosystems.
Small interference RNA (siRNA) transfection.

LDLR mRNA [3] = assay: LDLR mRNA stability under actinomycin D in HepG2 cells (real-time RT-PCR); format: cell-based, human; settings: HepG2, actinomycin D 5 μg/ml 30 min before, BBR or CND 15 μg/ml, 4 h
LDLR mRNA [4] = assay: Northern blot analysis of LDLR mRNA expression in HepG2 cells; format: cell-based, human; settings: each alkaloid 20 μg/ml, 8 h
Description: . The membrane was stripped and hybridized to a human GAPDH probe. The figure shown is representative of 3 separate studies.
FIG. 2 illustrates the comparison of dose-dependent effects of CND and BBR on LDLR mRNA expression. HepG2 cells were treated with CND or BBR for 8 h at the indicated concentrations and total RNA was isolated for analysis of LDLR mRNA and GAPDH mRNA expression by northern blot (FIG. 2, Panel A) and real-time PCR assays (FIG. 2, Panel B).
Quantitation of LDLR mRNA expression by northern blot analysis and real-time PCR. Isolation of total RNA and analysis of LDLR and GAPDH mRNA by northern blot were performed as previously described (Liu, J et al. J. Lipid Res. 1997, 38: 2035-2048). Differences in hybridization signals of northern blots were quantitated by a PhosphoImager. For quantitative real-time PCR assays, the reverse transcription was conducted with random primers using M-MLV (Promega) at 37° C. for 1 h in a volume of 25 u.1 containing 1 μg of total RNA. Real-time PCR was performed on the cDNA using ABI Prism 7900-HT Sequence Detection System and Universal MasterMix. The human and hamster LDLR and GAPDH Pre-Developed TaqMan Assay Reagents (Applied Biosystems) were used to assess the mRNA expressions in HepG2 and in hamster livers. The MDR1 mRNA expression in HepG2 cells was assayed similarly using the Pre-Developed probes from Applied Biosystems.
. HPLC/UV-DAD spectroscopic comparisons with standard solutions were used to confirm the presence of BBR, CND, HDT, and HDTN, as well as the absence of PMT. Concentrations of CND and HDT in sample extracts were determined using a single-point calibration and concentrations of BBR in sample extracts were calculated using a standard curve. The identities of BBR, CND, and HDT in extracts were verified further by LC-MS analysis. […]. […]. The results of northern blots were independently confirmed by real-time quantitative RT-PCR (FIG. 1C). […]. […].

DNA = settings: cited from earlier work
ERK [5] = assay: Western blot of phosphorylated ERK in HepG2 cells; format: cell-based, human; settings: HepG2, BBR, HDT or CND 20 μg/ml, 2 h
liver cells = assay: Cell survival by MTT (Cell Proliferation Kit I); format: cell-based; settings: different concentrations, 18 h
Description: The toxicity of CND and BBR were compared using a cell-based assay. Cell survival rate under drug treatments were determined by Cell Proliferation Kit I (MTT) obtained from Roche Applied Sciences (Indianapolis, Ind.). Cells were seeded in 96-well plates at a density of 5×10^3 cells/well/ in 100 μl medium supplemented with 10% FBS at 37° C. and 5% CO2. After 24 h, cells were incubated with fresh medium containing different concentrations of BBR or CND for 18 h. At the end of drug treatment, 10 μl of MTT labeling reagent per well was added to cells to reach a concentration of 0.5 mg/ml. After a 4 h-reaction, 100 μl of solubilization solution was added to each well and the plate was incubated at 37° C. overnight. The sample spectraphotometrical absorbance was measured by a microplate reader at the wavelength of 550 nm. The reading of sample without drug treatment was defined as 100% survival and readings from drug-treated samples were plotted relative to that value. Quadruple wells were used in each culture condition.

[6] = target: MDR1 transporter (pgp-170) (Homo sapiens, UniProt P08183)
LDLR promoter = LDLR promoter dual luciferase reporter assay (pLDLR234Luc) in HepG2 cells; format: cell-based, human; settings: 8 h
Description: FIG. 1E: Analysis of LDLR promoter activity: HepG2 cells were cotransfected with pLDLR234Luc and a normalizing vector pRL-SV40. […] Firefly luciferase and renilla luciferase activities were measured. The data represent normalized LDLR promoter activity.
Transient transfection and dual luciferase reporter assays. HepG2 cells were transfected with plasmid DNA (100 ng/well) by using FuGENE 6 transfection reagent. The DNA ratio of pLDLR234Luc (Li, C et al. J. Biol. Chem. 1999, 274: 6747-6753) to renilla luciferase reporter pRL-SV40 was 90:10. Twenty h after transfection, medium was changed to 0.5% FBS and drugs were added for 8 h prior to cell lysis. The luciferase activity in cell lysate was measured using Dual Luciferase Assay System obtained from Promega. Triplicate wells were assayed for each transfection condition.

MDR1 = MDR1 (Homo sapiens, UniProt P08183); assay: MDR direct dye efflux assay with DiOC2(3) in HepG2 cells; settings: HepG2, co-incubation 2 h, CND 15 μg/ml
Description: MDR direct dye efflux assay. The MDR Direct Dye Efflux Assay kit (Cat. No. ECM910, Chemicon International Inc., Temecula, Calif.) was used to measure MDR1 activity. HepG2 cells seeded in 6-well culture plates were incubated in efflux buffer (RPMI+2% BSA) and 1 μg/ml of DiOC2(3) in the absence of presence of tested compounds at 37° C. for 2 h.

[7] = Measurement of hepatic cholesterol and TG in HFHC-fed hamsters; settings: BBR 1.8 mg/animal/d
[8] = Body weight, food intake and adverse effects in HFHC-fed hamsters; format: in vivo, Golden Syrian hamsters; settings: 24 day treatment, control animals increased by 10%
Description: . The body weight of hamsters under a HFHC diet in untreated and drug-treated animals at indicated doses were monitored on alternate days (FIG. 11, Panel A). The food intake within 24 h period were measured 2-3 times a week throughout the entire experiment (FIG. 11, Panel B). The data are means±S.D. of 3 cages per group.
Goldenseal in vivo studies. 42 male Golden Syrian hamsters at 6-8 weeks of age were purchased from the Charles River Laboratories and were housed in cages (3 animals/cage) in an air-conditioned room with a 12 h light cycle. Animals had free access to autoclaved water and food. After one week on a regular rodent chow diet, 36 hamsters were switched to a rodent HFHC diet containing 1.25% cholesterol and 2.2% fat (Product # D12108, Research Diet, Inc., New Brunswick, N.J.) and 6 hamsters were fed a control normal diet containing 0.37% fat and no cholesterol (Product # D12102, Research Diet, Inc.). […]. Berberine Chloride was dissolved in the same vehicle solution. Four hours after the last drug treatment, all animals were sacrificed. Blood samples were collected through cardiac puncture and were analyzed for liver function, kidney function, and blood chemistry at DEXX Laboratories (Palo Alto, Calif.). […] After staining, tissue sections were evaluated by a veterinary pathologist and an experienced scientist independently. […]

LDLR mRNA [9] = assay: Hepatic LDLR mRNA expression in HFHC-fed hamsters (quantitative real-time RT-PCR); format: in vivo, Golden Syrian hamsters; settings: BBR 1.8 mg/d, end of 24-day treatment, n=6, p<0.0001
ERK [10] = assay: Western blot of phosphorylated ERK in hamster liver; format: in vivo, Golden Syrian hamsters; settings: pooled liver samples per treatment group (n=9), HFHC hamsters
HepG2 cells = assay: BBR uptake assay, intracellular fluorescence by FACS in HepG2 cells; settings: HepG2, 5 min incubation, BBR 15 μg/ml
[11] = 32 hypercholesterolemic patients, oral, 1 g daily, 3 months; cited from earlier work

Chain of MDR1 transporter (pgp-170) (P08183 whole entry): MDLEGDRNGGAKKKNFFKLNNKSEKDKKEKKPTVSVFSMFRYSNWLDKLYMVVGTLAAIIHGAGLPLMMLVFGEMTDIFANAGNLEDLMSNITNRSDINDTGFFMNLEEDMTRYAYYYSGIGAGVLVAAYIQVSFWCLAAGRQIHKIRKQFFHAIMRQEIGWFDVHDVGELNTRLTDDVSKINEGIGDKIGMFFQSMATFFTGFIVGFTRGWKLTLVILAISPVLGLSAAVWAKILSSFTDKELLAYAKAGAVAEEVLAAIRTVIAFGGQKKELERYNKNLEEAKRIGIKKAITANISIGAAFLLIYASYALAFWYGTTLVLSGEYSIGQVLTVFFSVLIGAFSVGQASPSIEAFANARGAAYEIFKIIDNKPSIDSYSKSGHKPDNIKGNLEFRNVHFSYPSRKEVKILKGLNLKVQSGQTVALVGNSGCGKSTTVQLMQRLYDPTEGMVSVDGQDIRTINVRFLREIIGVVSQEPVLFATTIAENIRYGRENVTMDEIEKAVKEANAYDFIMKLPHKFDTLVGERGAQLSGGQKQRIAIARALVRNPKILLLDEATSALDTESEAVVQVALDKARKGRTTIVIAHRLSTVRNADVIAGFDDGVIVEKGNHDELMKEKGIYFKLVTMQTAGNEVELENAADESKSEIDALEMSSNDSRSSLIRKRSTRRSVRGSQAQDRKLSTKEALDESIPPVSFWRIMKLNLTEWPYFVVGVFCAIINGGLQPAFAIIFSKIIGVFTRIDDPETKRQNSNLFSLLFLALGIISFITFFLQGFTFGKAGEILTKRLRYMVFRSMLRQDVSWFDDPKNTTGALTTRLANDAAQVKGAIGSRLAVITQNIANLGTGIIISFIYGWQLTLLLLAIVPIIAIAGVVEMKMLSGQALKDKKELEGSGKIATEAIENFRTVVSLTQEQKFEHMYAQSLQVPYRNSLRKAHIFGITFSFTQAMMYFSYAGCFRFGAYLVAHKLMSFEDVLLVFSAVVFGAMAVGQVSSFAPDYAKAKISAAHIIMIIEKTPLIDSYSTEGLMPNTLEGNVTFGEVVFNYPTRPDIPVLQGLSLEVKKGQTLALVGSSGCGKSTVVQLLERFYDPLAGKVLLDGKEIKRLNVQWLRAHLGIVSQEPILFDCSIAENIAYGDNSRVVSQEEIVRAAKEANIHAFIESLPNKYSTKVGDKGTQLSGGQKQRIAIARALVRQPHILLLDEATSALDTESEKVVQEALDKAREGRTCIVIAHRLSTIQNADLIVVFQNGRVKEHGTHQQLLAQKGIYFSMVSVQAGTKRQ
Chain of MDR1 (P08183 whole entry): as above

Molecule: COc1ccc2c(c1OC)CN1CCc3cc4c(cc3[C@H]1C2)OCO4 [CND, canadine]
- dose-dependent effect on LDLR mRNA expression, CND compared with BBR (LDLR mRNA [1]; similar concentration ranges, northern blot and real-time RT-PCR): greater activity than BBR; also recorded: more potent inducer of LDLR expression
- fold increase in activity on LDLR mRNA in the presence of VRMP vs absence (LDLR mRNA [2]; HepG2, 0.6 μM VRMP, 8 h, 3 separate experiments, mean±S.D.): 0.82±0.34 fold
- effect of MDR1 siRNA transfection on activity in elevation of LDLR mRNA level (LDLR mRNA [2]; HepG2, siRNA 3 days, drug 6 h): not affected
- LDLR mRNA increase compared to control under transcriptional suppression (LDLR mRNA [3]): ~2.5 fold
- LDLR mRNA expression (northern blot) (LDLR mRNA [4]): strong inducers
- DNA binding (DNA): does not bind to DNA
- ERK phosphorylation (ERK [5]): attributable to CND and BBR
- toxicity to liver cells (cell survival, MTT), CND compared with BBR (liver cells): less toxic to liver cells than berberine (BBR)
- MDR1 substrate status ([6]; inferred from lack of VRMP effect on activity in HepG2): not a substrate of MDR1
- LDLR promoter activity (LDLR promoter; HepG2, BBR or CND 15 μg/ml): not affected at all
- efflux of DiOC2(3) (MDR1): no inhibitory effect

Molecule: COc1ccc2cc3[n+](cc2c1OC)CCc1cc2c(cc1-3)OCO2 [BBR, berberine]
- increase in LDLR mRNA expression (LDLR mRNA [1]; BBR 20 μg/ml): 3 fold
- hepatic TC, % of control [7]: 68.7 % of control
- hepatic TG, % of control [7]: 78.3 % of control
- LDLR mRNA increase compared to control under transcriptional suppression (LDLR mRNA [3]): ~2.5 fold
- LDLR mRNA expression (northern blot) (LDLR mRNA [4]): strong inducers
- DNA binding (DNA): strong DNA binding affinities
- ERK phosphorylation (ERK [5]): attributable to CND and BBR
- body weights [8]: unchanged
- increase in hepatic LDLR mRNA expression (LDLR mRNA [9]): 3.7 fold
- levels of phosphorylated ERK in liver (ERK [10]): greatly elevated
- increase of intracellular fluorescent intensity (HepG2 cells): ~2 fold
- increase in BBR uptake in MDR1 siRNA transfected cells compared to mock transfected cells ([6]; human, 2 h, 15 μg/ml): 49%
- increase in fluorescent intensity on blocking MDR1 activity with VRMP ([6]; human, 2 h, 15 μg/ml): 49%
- reduction of LDL-c [11]: 25%
- reduction of plasma total cholesterol (TC) [11]: 29%
- reduction of triglyceride (TG) [11]: 35%
- side effects [11]: without side effects

Molecule: CN1CCc2cc3c(cc2C1O)OCO3 (stereo not shown) [HDTN, hydrastinine]
- LDLR mRNA expression (northern blot) (LDLR mRNA [4]): no effects

Molecule: COc1cc2c(cc1OC)-c1cc3ccc(OC)c(OC)c3c[n+]1CC2 [PMT, palmatine]
- LDLR mRNA expression (northern blot) (LDLR mRNA [4]): no regulatory activity on LDLR expression; also recorded: no effects
- DNA binding (DNA): strong DNA binding affinities

Molecule: COc1ccc(CCN(C)CCCC(C#N)(c2ccc(OC)c(OC)c2)C(C)C)cc1OC (stereo not shown) [VRMP, verapamil]
- effect of VRMP itself on the LDLR mRNA level (LDLR mRNA [2]): little effect

Molecule: COc1ccc2c(c1OC)C(=O)O[C@@H]2[C@H]1c2cc3c(cc2CCN1C)OCO3 [HDT, β-hydrastine]
- LDLR mRNA expression (northern blot) (LDLR mRNA [4]): no effects

B1: OM: cytokine oncostatin M, known activator of the LDLR promoter (protein, UniProt P13725 26-221, looked up)
Oncostatin-M: AAIGSCSKEYRVLLGQLQKQTDLMQDTSRLLDPYIRIQGLDVPKLREHCRERPGAFPSEETLRGLGRRGFLQTLNATLGCVLHRLADLEQRLPKAQDLERSGLNIEDLEKLQMARPNILGLRNNIYCMAQLLDNSDTAEPTKAGRGASQPPTPTPASDAFQRKLEGCRFLHGYHRFMHSVGRVFSKWGESPNRSRR
- LDLR promoter activity (LDLR promoter; HepG2, OM 50 ng/ml): strongly elevated
